Laboratory results reported in patent US4622319A, “Methods of using PAF-antagonistic diazepines” (Boehringer Ingelheim KG, priority 1984, dated 1986).
pIC50: −log10 of the molar value.

Each compound was assayed on PAF-induced aggregation of human thrombocytes (assay: Inhibition of PAF-induced blood platelet aggregation in vitro). Settings: human thrombocyte-rich plasma, aggregation induced with PAF 5×10^-8 M, concentration giving 50% inhibition of aggregation, read-out: PAF-Antag. IC50.
Format: cell-based
Procedure: 1. Inhibition of blood platelet aggregation in vitro
The PAF-induced aggregation of human thrombocytes in vitro is used to determine PAF-antagonistic activity. To obtain thrombocyte-rich plasma (TRP), blood is taken from an uncongested vein using a plastic syringe containing 3.8% sodium citrate solution. The ratio of sodium citrate solution to blood is 1:9. After careful mixing the citrate blood is centrifuged for 20 minutes at 150 g (1200 rpm). The thrombocyte aggregation is measured using the method devised by Born and Cross (G. V. R. Born and M. J. Cross, J. Physiol. 168, 178 (1963)), by adding an aggregation initiator (PAF) to the TRP with constant stirring.
The test substance is added 2 to 3 minutes before aggregation is initiated in a volume of 10 μl. Either distilled water, ethanol and/or dimethylsulphoxide (each in suitable concentrations) can be used as solvent.
Control mixtures contain corresponding volumes of these solvents. After the initial absorption has been recorded (2 to 3 minutes) aggregation is induced with PAF (5×10^-8 M).
The maximum of the first aggregation wave is used to assess the effects of the substance. The PAF-induced maximum absorption rate (=maximum aggregation×100%) is tested at the same time in a parallel mixture (=control mixture in one of the channels of the two-channel aggregometer) as each test mixture (second channel) and is used as a 100% value.
The aggregation value attained under the effect of the test substance is given as a percentage of the control value, i.e. less than 100% in the case of an inhibition of aggregation and over 100% in the case of an increase.
Each test substance is investigated at concentrations of from 10^-3 to 10^-8 M with a random sampling of n=4 with regard to an inhibitory effect on the PAF-induced thrombocyte aggregation. Then a concentration-activity curve is drawn up using 3 concentrations and the IC50 is determined (concentration giving a 50% inhibition of aggregation).
In the case of `O=C1CC(=O)N(c2ccccc2)c2cc(Br)ccc2N1`, the pIC50 was 3.33. With `CN1C(=O)CC(=O)N(c2ccccc2)c2cc(Cl)ccc21` [Compound 1, Clobazam, reference compound] the pIC50 was 3.60. In the case of `CN1C(=O)CC(=O)N(c2ccccc2)c2cc(C(F)(F)F)ccc21` [Compound 2, Triflubazam, reference compound], the pIC50 was 3.70. Compound `CCN1C(=O)CC(=O)N(c2ccccc2)c2cc(Cl)ccc21` [Compound 4] has a pIC50 of 4.01. In the case of `CN1C(=O)CC(=O)N(c2ccccc2Cl)c2cc(Cl)ccc21` [Compound 5], the pIC50 was 3.66. Work on `CN1C(=O)CC(=O)N(c2ccccc2C(F)(F)F)c2cc(Cl)ccc21` [Compound 6] yielded a pIC50 of 4.18. For `CN1C(=O)CC(=O)N(c2ccccc2F)c2ccccc21` [Compound 7], the pIC50 was 4.02. `COc1ccccc1N1C(=O)CC(=O)N(C)c2ccc(Cl)cc21` [Compound 8] gave a pIC50 of 3.54. In the case of `CN1C(=O)CC(=O)N(c2ccccn2)c2cc(Br)ccc21` [Compound 9], the pIC50 was < 3.00. Work on `CN1C(=O)CC(=O)N(c2ccccc2Cl)c2cc([N+](=O)[O-])ccc21` [Compound 10] yielded a pIC50 of 3.51. `CN1C(=O)CC(=O)N(c2ccccc2)c2ccc(Cl)cc21` [Compound 11] gave a pIC50 of 3.68. With `CC1C(=O)Nc2ccc(Br)cc2N(c2ccccc2)C1=O` (centres unmarked) [Compound 12] the pIC50 was 3.46. `CN1CCC(=O)N(c2ccccc2)c2cc(Br)ccc21` [Compound 13] was tested, and the pIC50 was < 3.00. With `O=C1CCN(CCO)c2ccc(Cl)cc2N1c1ccccc1` [Compound 14] the pIC50 was 3.55. `CCN1CCC(=O)N(c2ccccc2)c2cnccc21` [Compound 15] was tested, and the pIC50 was < 4.00. For `CN1C(=O)CC(=O)N(c2ccccc2)c2cnccc21` [Compound 16], the pIC50 was < 4.30. `CCn1nc(C)c2c1N(c1ccccc1)C(=O)CC(=O)N2` [Compound 17] was tested, and the pIC50 was < 4.00.
